# Measured values published in ChEMBL document CHEMBL4619758, “Discovery of 3-({5-Chloro-1-[3-(methylsulfonyl)propyl]-1H-indol-2-yl}methyl)-1-(2,2,2-trifluoroethyl)-1,3-dihydro-2H-imidazo[4,5-c]pyridin-2-one (JNJ-53718678), a Potent and Orally Bioavailable Fusion Inhibitor of Respiratory Syncytial Virus” (J Med Chem, 2020).
# How the values were obtained:
# [1] = Protein binding in human plasma assessed as unbound fraction; assay type: ADME, cell-free
# in vitro = settings: human, HeLa cells
# Description: Selectivity index, ratio of CC50 for human HeLa cells to EC50 GFP-fused RSV 224 fusion protein infected in human HeLa cells
# [2] = Cytotoxicity against human HeLa cells assessed as reduction in cell viability after 3 days by ATPlite assay
# Cytochrome P450 3A4 = Cytochrome P450 3A4 (Homo sapiens, UniProt P08684); assay: Time-dependent inhibition of CYP3A4 in human liver microsomes using testosterone as substrate; assay type: ADME
# Sequence of Cytochrome P450 3A4 (P08684 whole entry): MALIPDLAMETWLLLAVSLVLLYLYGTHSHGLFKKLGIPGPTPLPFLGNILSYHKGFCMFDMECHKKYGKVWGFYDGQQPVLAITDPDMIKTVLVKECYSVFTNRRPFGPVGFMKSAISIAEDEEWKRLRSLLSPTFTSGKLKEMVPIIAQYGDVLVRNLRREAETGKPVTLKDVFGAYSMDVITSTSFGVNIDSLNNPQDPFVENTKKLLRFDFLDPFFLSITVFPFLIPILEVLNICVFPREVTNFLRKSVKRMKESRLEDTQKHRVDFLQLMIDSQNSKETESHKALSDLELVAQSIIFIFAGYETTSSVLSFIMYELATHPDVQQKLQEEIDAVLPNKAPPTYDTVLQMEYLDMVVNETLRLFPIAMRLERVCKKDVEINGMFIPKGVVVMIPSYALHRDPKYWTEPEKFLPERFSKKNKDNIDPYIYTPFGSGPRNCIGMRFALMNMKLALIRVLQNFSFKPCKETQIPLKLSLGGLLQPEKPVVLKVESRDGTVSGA
# [3] = Metabolic stability in human liver microsomes assessed as compound metabolized after 15 mins; assay type: ADME, Microsome; settings: read-out: Drug metabolism
# CYP3A4 = CYP3A4 (Homo sapiens, UniProt P08684); assay: Time-dependent inhibition of CYP3A4 in human liver microsomes assessed as ratio of IC50 in presence and absence of NADPH using testosterone as substrate; assay type: ADME; settings: probe testosterone, read-out: Ratio IC50
# Sequence of CYP3A4 (P08684 whole entry): as above
# [4] = AUC in Sprague-Dawley rat at 10 mg/kg, po administered as single dose; assay type: ADME, organism-based; settings: in vivo
# [5] = Volume of distribution at steady state in Sprague-Dawley rat at 2 mg/kg, iv administered as single dose; assay type: ADME, organism-based; settings: in vivo, read-out: Vdss
# [6] = Cmax in Sprague-Dawley rat at 10 mg/kg, po administered as single dose; assay type: ADME, organism-based; set-up: dose 10 mg/kg, route oral; settings: in vivo
# [7] = Metabolic stability in rat liver microsomes assessed as compound metabolized after 15 mins; assay type: ADME, Microsome; settings: read-out: Drug metabolism
# [8] = Ratio of AUC (0 to last) in lung to plasma of Sprague-Dawley rat at 10 mg/kg, po administered as single dose; assay type: ADME, organism-based; settings: lung and plasma, read-out: Ratio AUC
# [9] = Clearance in Sprague-Dawley rat at 2 mg/kg, iv administered as single dose; assay type: ADME, organism-based; settings: in vivo
# [10] = Clearance in Sprague-Dawley rat at 2 mg/kg, iv administered as single dose relative to liver blood flow; assay type: ADME, organism-based; settings: in vivo
# [11] = Absolute oral bioavailability in Sprague-Dawley rat at 10 mg/kg administered as single dose; assay type: ADME, organism-based; settings: in vivo
# [12] = Ratio of AUC (0 to last) in lung to plasma of Sprague-Dawley rat at 2.5 mg/kg, iv or 10 mg/kg, po; assay type: ADME, organism-based; settings: lung and plasma, read-out: Ratio AUC
# [13] = test system: Respiratory syncytial virus; assay: Antiviral activity against RSV Long infected in po dosed cotton rat model assessed as reduction in viral titer in broncho alveolar lavage fluid pretreated for 1 hr followed by viral infection measured after 4 days by plaque reduction assay; assay type: functional, organism-based; settings: for EC50: human respiratory syncytial virus
# [14] = Metabolic stability in dog liver microsomes assessed as compound metabolized after 15 mins; assay type: ADME, Canis lupus familiaris, Microsome; settings: read-out: Drug metabolism
# [15] = Oral bioavailability in dog at 5 mg/kg; assay type: ADME, organism-based, Canis lupus familiaris; settings: in vivo
# [16] = Oral bioavailability in Sprague-Dawley rat at 10 mg/kg; assay type: ADME, organism-based; settings: in vivo
# [17] = Clearance in Sprague-Dawley rat plasma at 2.5 mg/kg, iv; assay type: ADME, organism-based
# [18] = test system: Respiratory syncytial virus; assay: Antiviral activity against RSV Long infected in po dosed cotton rat model assessed as reduction in viral titer in lung lavage fluid pretreated for 1 hr followed by viral infection measured after 4 days by plaque reduction assay; assay type: functional, organism-based; settings: for EC50: human respiratory syncytial virus
# [19] = Clearance in dog plasma at 1 mg/kg, iv relative to liver blood flow; assay type: ADME, organism-based, Canis lupus familiaris; settings: in vivo
# [20] = Clearance in dog plasma at 1 mg/kg, iv; assay type: ADME, organism-based, Canis lupus familiaris
# [21] = Aqueous solubility of the compound; assay type: physicochemical; settings: buffer
smiles,measurement,setting,value
CC(C)CCn1c(Cn2c(=O)n(C3CC3)c3ccncc32)cc2ccccc21,fraction unbound,[1],0.006
same,selectivity ratio,in vitro,181
same,CC50 at 72 h,[2],> 100 µM
CS(=O)(=O)CCCn1c(Cn2c(=O)n(CC3CC3)c3ccncc32)cc2cc(Cl)ccc21,TDI,Cytochrome P450 3A4,Not Active
same,CC50 at 72 h,[2],> 50 µM
same,metabolised at 0.25 h,[3],98%
CS(=O)(=O)CCCn1c(Cn2c(=O)[nH]c3ccncc32)cc2cc(Cl)ccc21,TDI,Cytochrome P450 3A4,Not Active
same,CC50 at 72 h,[2],> 50 µM
same,metabolised at 0.25 h,[3],9%
CS(=O)(=O)CCCn1c(Cn2c(=O)n(C3CC3)c3ccncc32)cc2cc(Cl)ccc21,CC50 at 72 h,[2],> 50 µM
same,metabolised at 0.25 h,[3],18%
same,IC50 shift,CYP3A4,18
O=c1n(Cc2cc3cnccc3n2CCCC(F)(F)F)c2cnccc2n1C1CC1,AUC,[4],545 ng·h/mL
same,Vd,[5],3.3 L/kg
same,Cmax,[6],532 ng/mL
same,metabolised at 0.25 h,[7],80%
same,fraction unbound,[1],0.472
same,Kp,[8],11
same,CC50 at 72 h,[2],> 50 µM
same,clearance,[9],75 mL/min/kg
same,metabolised at 0.25 h,[3],21%
same,CL,[10],> 100%
same,bioavailability,[11],28%
CC1(n2c(=O)n(Cc3cc4cc(Cl)ccc4n3CCCS(C)(=O)=O)c3cnccc32)CC1,TDI,Cytochrome P450 3A4,Not Active
same,CC50 at 72 h,[2],> 50 µM
same,metabolised at 0.25 h,[3],29%
O=c1n(Cc2nc3nc(Cl)ccc3n2CCCC(F)(F)F)c2cnccc2n1C1CC1,AUC,[4],3370 ng·h/mL
same,Vd,[5],0.82 L/kg
same,Cmax,[6],1690 ng/mL
same,metabolised at 0.25 h,[7],80%
same,fraction unbound,[1],0.3
same,Kp,[8],0.4
same,CC50 at 72 h,[2],> 50 µM
same,clearance,[9],23.3 mL/min/kg
same,metabolised at 0.25 h,[3],0%
same,bioavailability,[11],46%
N#CCCCn1c(Cn2c(=O)n(C3CC3)c3ccncc32)cc2cc(Cl)ccc21,AUC,[4],3300 ng·h/mL
same,Vd,[5],1.5 L/kg
same,Cmax,[6],1230 ng/mL
same,metabolised at 0.25 h,[7],80%
same,fraction unbound,[1],0.036
same,Kp,[8],1.6
same,CC50 at 72 h,[2],> 50 µM
same,clearance,[9],36.7 mL/min/kg
same,metabolised at 0.25 h,[3],17%
same,bioavailability,[11],73%
O=c1n(Cc2nc3cnccc3n2CCCCO)c2cnccc2n1C1CC1,selectivity ratio,in vitro,> 18000
same,CC50 at 72 h,[2],> 100 µM
O=c1n(Cc2nc3ncccc3n2CCCCO)c2cnccc2n1C1CC1,selectivity ratio,in vitro,> 10000
same,CC50 at 72 h,[2],> 100 µM
CC(C)n1c(=O)n(Cc2cc3cc(Cl)ccc3n2CCCS(C)(=O)=O)c2cnccc21,TDI,Cytochrome P450 3A4,Not Active
same,CC50 at 72 h,[2],> 50 µM
same,metabolised at 0.25 h,[3],97%
COc1ccc(-n2c(=O)n(Cc3cc4cc(Cl)ccc4n3CCCC#N)c3cnccc32)cc1OC,Kp,[12],2.5
same,Activity,[13],Dose-dependent effect
same,EC50,[13],0.18 µg/mL
same,metabolised at 0.25 h,[7],74%
same,fraction unbound,[1],0.008
same,metabolised at 0.25 h,[14],56%
same,bioavailability,[15],26%
same,bioavailability,[16],32%
same,clearance,[17],31.7 mL/min/kg
same,Activity,[18],Dose-dependent effect
same,EC50,[18],0.157 µg/mL
same,CL,[19],50%
same,CC50 at 72 h,[2],> 50 µM
same,clearance,[20],14.3 mL/min/kg
same,metabolised at 0.25 h,[3],19%
COc1ccc(-n2c(=O)n(Cc3cc4cc(Cl)ccc4n3CCCC#N)c3cnccc32)cc1,Kp,[12],1.3
same,Activity,[13],Dose-dependent effect
same,EC50,[13],0.499 µg/mL
same,metabolised at 0.25 h,[7],40%
same,fraction unbound,[1],0.005
same,metabolised at 0.25 h,[14],96%
same,bioavailability,[15],9%
same,bioavailability,[16],86%
same,clearance,[17],16.2 mL/min/kg
same,Activity,[18],Dose-dependent effect
same,EC50,[18],0.121 µg/mL
same,CL,[19],90%
same,CC50 at 72 h,[2],> 50 µM
same,clearance,[20],24.8 mL/min/kg
same,metabolised at 0.25 h,[3],20%
O=c1n(Cc2cc3ccncc3n2CCCCO)c2cnccc2n1C1CC1,selectivity ratio,in vitro,> 76
same,CC50 at 72 h,[2],> 100 µM
CS(=O)(=O)CCCn1c(Cn2c(=O)n(CC(F)(F)F)c3ccncc32)cc2cc(Cl)ccc21 [RILEMATOVIR],Kp,[12],3.5
same,Activity,[13],Dose-dependent effect
same,EC50,[13],0.075 µg/mL
same,metabolised at 0.25 h,[7],60%
same,fraction unbound,[1],0.06
same,metabolised at 0.25 h,[14],28%
same,TDI,Cytochrome P450 3A4,Not Active
same,bioavailability,[16],42%
same,clearance,[17],65 mL/min/kg
same,Activity,[18],Dose-dependent effect
same,EC50,[18],0.081 µg/mL
same,CC50 at 72 h,[2],> 50 µM
same,clearance,[20],8.5 mL/min/kg
same,metabolised at 0.25 h,[3],1%
CC(C)CCn1c(Cn2c(=O)n(C3CC3)c3ccncc32)nc2cccnc21,selectivity ratio,in vitro,> 80
same,CC50 at 72 h,[2],> 100 µM
O=c1n(Cc2cc3cnccc3n2CCCCO)c2cnccc2n1C1CC1,selectivity ratio,in vitro,> 57000
same,CC50 at 72 h,[2],> 100 µM
CC(C)CCn1c(Cn2c(=O)n(C3CC3)c3ccncc32)nc2cnccc21,selectivity ratio,in vitro,> 3000
same,CC50 at 72 h,[2],> 100 µM
CS(=O)(=O)c1ccc(-n2c(=O)n(Cc3cc4cc(Cl)ccc4n3CCCC#N)c3cnccc32)cc1,solubility,[21],Insoluble
same,CC50 at 72 h,[2],> 50 µM
same,metabolised at 0.25 h,[3],9%
O=c1n(Cc2cc3ncccc3n2CCCCO)c2cnccc2n1C1CC1,selectivity ratio,in vitro,> 613
same,CC50 at 72 h,[2],> 100 µM
